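Where inhibition never reached the appropriate level, the endpoint shown equals the highest concentration tested. Otherwise, values were interpolated linearly from a five-concentration, 48-hour dose response in 96-well plates. Abbreviation: GI50, concentration required for 50% inhibition of growth. TGI is the concentration that stops growth completely.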
Legend:
Experiment in all cases: growth of human tumour cells (NCI), 48 h
KM12 colon = system: KM12 colon
UO-31 renal = system: UO-31 renal
A498 renal = system: A498 renal
SF-295 CNS = system: SF-295 CNS
NCI-H226 lung = system: NCI-H226 lung
T-47D breast = system: T-47D breast
NCI-H460 lung = system: NCI-H460 lung
SNB-75 CNS = system: SNB-75 CNS
BT-549 breast = system: BT-549 breast
HS 578T breast = system: HS 578T breast
HCT-116 colon = system: HCT-116 colon
SR leukemia = system: SR leukemia
EKVX NSCLC = system: EKVX NSCLC
HL-60(TB) leukemia = system: HL-60(TB) leukemia
RXF 393 renal = system: RXF 393 renal
HCC-2998 colon = system: HCC-2998 colon
SK-MEL-28 melanoma = system: SK-MEL-28 melanoma
UACC-257 melanoma = system: UACC-257 melanoma
HCT-15 colon = system: HCT-15 colon
SW-620 colon = system: SW-620 colon
TK-10 renal = system: TK-10 renal
MOLT-4 leukemia = system: MOLT-4 leukemia
OVCAR-8 ovarian = system: OVCAR-8 ovarian
CAKI-1 renal = system: CAKI-1 renal
RPMI-8226 leukemia = system: RPMI-8226 leukemia
A549 NSCLC = system: A549 NSCLC
HOP-62 NSCLC = system: HOP-62 NSCLC
SN12C renal = system: SN12C renal
PC-3 prostate = system: PC-3 prostate

## Cc1ccc(C2C3Cc4ccccc4C3=NN2c2ccc(S(=O)(=O)NC(=O)NC3CCCCC3)cc2)cc1 (configuration not stated)
KM12 colon
  TGI: 39.1 µM
UO-31 renal
  GI50: 11 µM
  TGI: 26.1 µM
A498 renal
  GI50: 22.4 µM
  TGI: 39.6 µM
SF-295 CNS
  GI50: 17.9 µM
  TGI: 54.2 µM
NCI-H226 lung
  GI50: 21.2 µM
  TGI: 54.6 µM
T-47D breast
  GI50: 32.5 µM
  TGI: > 100 µM
NCI-H460 lung
  GI50: 21.6 µM
  TGI: > 100 µM
SNB-75 CNS
  GI50: 44 µM
  TGI: > 100 µM
BT-549 breast
  GI50: 18 µM
  TGI: 42.9 µM
HS 578T breast
  GI50: 23.6 µM
  TGI: 62.7 µM
HCT-116 colon
  GI50: 15.5 µM
  TGI: > 100 µM
SR leukemia
  GI50: 6.25 µM
  TGI: 32.1 µM
EKVX NSCLC
  GI50: 20.2 µM
  TGI: 67.1 µM
HL-60(TB) leukemia
  GI50: 22.9 µM
  TGI: 59.7 µM
RXF 393 renal
  GI50: 18.7 µM
  TGI: 54.5 µM
HCC-2998 colon
  GI50: 12.6 µM
  TGI: 28.6 µM
SK-MEL-28 melanoma
  GI50: 19.9 µM
  TGI: 38 µM
UACC-257 melanoma
  GI50: 20.2 µM
  TGI: 39.7 µM
HCT-15 colon
  GI50: 19.4 µM
  TGI: 76.7 µM
SW-620 colon
  GI50: 16.6 µM
  TGI: 40.1 µM
TK-10 renal
  GI50: 11.7 µM
  TGI: 28.4 µM
MOLT-4 leukemia
  GI50: 7.69 µM
  TGI: > 100 µM
OVCAR-8 ovarian
  GI50: 17.4 µM
  TGI: 43.6 µM
CAKI-1 renal
  GI50: 16 µM
  TGI: 42.1 µM
RPMI-8226 leukemia
  GI50: 5.44 µM
  TGI: 40.8 µM
A549 NSCLC
  GI50: 12 µM
  TGI: 27.5 µM
HOP-62 NSCLC
  GI50: 45.7 µM
  TGI: > 100 µM
SN12C renal
  GI50: 16.6 µM
  TGI: 33.1 µM
PC-3 prostate
  GI50: 9.66 µM
  TGI: 26.2 µM
